Experimental data from US11517541B2, “Applications of spermidine and its derivatives” (GENEHEAL BIOTECHNOLOGY CO., LTD., priority 2017, dated 2022).

How the values were obtained:
oncogene myc = assay: Inhibition of oncogene MYC expression (Western Blot); format: cell-based; settings: FIG. 4
[1] = test system: lung cancer cell strain PC9; assay: Cancer cell growth inhibition / cell viability; format: cell-based; settings: after 48 hours of drug administration
[2] = test system: breast cancer cell strain MD468; assay: Cancer cell growth inhibition / cell viability; format: cell-based; settings: after 48 hours of drug administration
[3] = test system: lung cancer cell strain A549; assay: Cancer cell growth inhibition / cell viability; format: cell-based; settings: Homo sapiens, after 48 hours of drug administration
PAICS = molecular target: T1, PAICS (Homo sapiens, UniProt P22234); assay: Inhibition of spermidine on PAICS activity (SAICAR accumulation); settings: biochemical enzyme activity experiments and cell biology experiments
T1 sequence (P22234 1-425): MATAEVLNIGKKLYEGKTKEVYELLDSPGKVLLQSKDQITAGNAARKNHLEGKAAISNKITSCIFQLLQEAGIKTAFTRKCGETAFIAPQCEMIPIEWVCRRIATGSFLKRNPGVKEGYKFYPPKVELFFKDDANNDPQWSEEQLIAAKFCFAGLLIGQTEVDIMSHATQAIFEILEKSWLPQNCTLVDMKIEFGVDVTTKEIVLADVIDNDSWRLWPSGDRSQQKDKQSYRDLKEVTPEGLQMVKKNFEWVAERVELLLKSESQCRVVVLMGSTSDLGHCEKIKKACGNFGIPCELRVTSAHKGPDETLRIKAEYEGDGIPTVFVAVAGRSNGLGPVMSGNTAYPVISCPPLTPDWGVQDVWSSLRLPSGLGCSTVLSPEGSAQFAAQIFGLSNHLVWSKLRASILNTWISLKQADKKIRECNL
Text: The accumulation of toxic compound SAICAR is reduced by inhibiting the activity of PAICS.

[4] = test system: breast cancer cell strain MD231; assay: Cancer cell growth inhibition / cell viability; format: cell-based; settings: after 48 hours of drug administration
[5] = test system: lung cancer cell strain H1299; assay: Cancer cell growth inhibition / cell viability; format: cell-based; settings: Homo sapiens, NCI-H1299, after 48 hours of drug administration

NCCCCNCCCN [spermidine]
expression of oncogene myc (oncogene myc): significantly down-regulated
IC50 [1]: 23.4 µM
IC50 [2]: 46.1 µM
IC50 [3]: 52.1 µM
inhibition of the accumulation of SAICAR (PAICS): up to 68.98%
IC50 [4]: 1.41 µM
IC50 [5]: 21.1 µM
